Measured values: patent publication US12605401B2, “Polymers, compositions and methods for treating hyperuricemia” (WATERSTONE PHARMACEUTICALS (WUHAN) CO., LTD., priority 2021, dated 2026)

System: chronic hyperuricemia model rats
Test: Chronic hyperuricemia model, adenine + ethambutol, 21 days; serum UA, CREA, UREA
Assay type: in vivo
Protocol: 48 rats were randomly divided into 6 groups with 8 rats in each group. The groups were as follows: Blank Group (Vehicle, ig), Model Group (Vehicle, ig), Positive control group (Allopurinol, 10 mg/kg, ig), Compound 1 group (Sevelamer carbonate, 250 mg/kg, ig), Compound 2 low-dose group (TAA polymer, 50 mg/kg, ig), Compound 2 high-dose group (TAA polymer, 250 mg/kg, ig). Except for blank group, rats in other groups were modeled according to the chronic modeling method. The modeling method was as follows: rats were given Adenine (100 mg/kg)+Ethambutol (250 mg/kg) by gavage, once a day, for 21 days. Animals in blank group and model group were given equal volume of normal saline by gavage. Animals in positive control group were given positive 10 mg/kg Alloalcohol, once in the first week, once in the second week, once a day for 3 days before sampling in the third week. Animals in other groups were given intragastric administration once a day for 14 consecutive days from the 8th day of modeling. Blood samples were taken at Day 21 after modeling, and serum samples were separated and stored at −80° C. for biochemical detection.
After 21 days of modeling (14 days of drug treatment), blood samples were taken and serum separation was performed to detect three renal functions (UA, CREA and UREA) (See Table 1 and FIGS. 2a, 2b and 2c). Compound 1 is Sevelamer carbonate and Compound 2 is a graft polytriallylamine with 50% molar percentage of the moiety to the tertiary amine in polytriallylamine.

Oc1ncnc2[nH]ncc12 [Allopurinol]
CREA, effect in words (10 mg/kg ig, day 21): significantly reduced
UA, effect in words (10 mg/kg ig, day 21): significantly reduced
UREA, effect in words (10 mg/kg ig, day 21): significantly reduced
CREA and UREA, conclusion in words (protective effect on the kidney) (conclusion over the dose groups): can decrease
